Results: ChEMBL document CHEMBL1781991, “Heteroalicyclic carboxamidines as inhibitors of inducible nitric oxide synthase; the identification of (2R)-2-pyrrolidinecarboxamidine as a potent and selective haem-co-ordinating inhibitor” (Bioorg Med Chem Lett, 2011)

What was measured:
[1] = biological target: T1, Nitric oxide synthase, inducible (Homo sapiens, UniProt P35228); experiment: Inhibition of human recombinant iNOS by microtiter plate assay
Nitric oxide synthase 3 = biological target: T2, Nitric oxide synthase 3 (Homo sapiens, UniProt P29474); experiment: Inhibition of human recombinant eNOS by microtiter plate assay
T2 sequence (P29474 whole entry): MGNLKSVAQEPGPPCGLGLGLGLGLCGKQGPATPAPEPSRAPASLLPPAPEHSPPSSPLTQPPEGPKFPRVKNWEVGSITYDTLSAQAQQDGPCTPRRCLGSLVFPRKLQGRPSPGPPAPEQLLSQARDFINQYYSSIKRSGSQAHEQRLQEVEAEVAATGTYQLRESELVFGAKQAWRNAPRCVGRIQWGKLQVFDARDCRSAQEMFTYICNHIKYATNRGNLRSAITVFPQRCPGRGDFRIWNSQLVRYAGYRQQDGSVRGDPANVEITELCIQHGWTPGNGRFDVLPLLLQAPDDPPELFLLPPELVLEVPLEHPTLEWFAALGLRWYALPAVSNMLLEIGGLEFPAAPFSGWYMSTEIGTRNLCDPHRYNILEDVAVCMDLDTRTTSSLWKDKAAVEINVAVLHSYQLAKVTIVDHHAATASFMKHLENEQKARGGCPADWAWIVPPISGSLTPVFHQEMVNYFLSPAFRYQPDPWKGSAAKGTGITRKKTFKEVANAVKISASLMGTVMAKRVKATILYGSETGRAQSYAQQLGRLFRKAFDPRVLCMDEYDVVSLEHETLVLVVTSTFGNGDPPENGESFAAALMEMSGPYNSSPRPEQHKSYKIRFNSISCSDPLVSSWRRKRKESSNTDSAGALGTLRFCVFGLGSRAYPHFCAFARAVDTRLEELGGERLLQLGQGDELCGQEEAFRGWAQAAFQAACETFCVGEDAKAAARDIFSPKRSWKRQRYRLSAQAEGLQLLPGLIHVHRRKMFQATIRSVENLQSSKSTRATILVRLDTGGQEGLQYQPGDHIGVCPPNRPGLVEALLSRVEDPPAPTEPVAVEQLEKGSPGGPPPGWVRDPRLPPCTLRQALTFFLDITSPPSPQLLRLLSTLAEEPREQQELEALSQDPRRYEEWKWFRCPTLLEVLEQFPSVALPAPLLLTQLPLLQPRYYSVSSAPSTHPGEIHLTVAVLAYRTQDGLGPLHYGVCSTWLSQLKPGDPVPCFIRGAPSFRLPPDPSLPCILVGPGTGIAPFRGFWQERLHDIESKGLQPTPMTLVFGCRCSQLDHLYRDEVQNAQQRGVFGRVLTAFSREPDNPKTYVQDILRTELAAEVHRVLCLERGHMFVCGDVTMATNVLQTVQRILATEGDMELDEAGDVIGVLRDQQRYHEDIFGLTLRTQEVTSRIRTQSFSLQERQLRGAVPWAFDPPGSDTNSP

Nitric oxide synthase 1 = Nitric oxide synthase 1 (Homo sapiens, UniProt P29475); experiment: Inhibition of human recombinant nNOS by microtiter plate assay
[2] = biological target: T1, Nitric oxide synthase, inducible; experiment: Binding affinity to human recombinant iNOS delta 65 residue

T1 sequence (P35228 whole entry): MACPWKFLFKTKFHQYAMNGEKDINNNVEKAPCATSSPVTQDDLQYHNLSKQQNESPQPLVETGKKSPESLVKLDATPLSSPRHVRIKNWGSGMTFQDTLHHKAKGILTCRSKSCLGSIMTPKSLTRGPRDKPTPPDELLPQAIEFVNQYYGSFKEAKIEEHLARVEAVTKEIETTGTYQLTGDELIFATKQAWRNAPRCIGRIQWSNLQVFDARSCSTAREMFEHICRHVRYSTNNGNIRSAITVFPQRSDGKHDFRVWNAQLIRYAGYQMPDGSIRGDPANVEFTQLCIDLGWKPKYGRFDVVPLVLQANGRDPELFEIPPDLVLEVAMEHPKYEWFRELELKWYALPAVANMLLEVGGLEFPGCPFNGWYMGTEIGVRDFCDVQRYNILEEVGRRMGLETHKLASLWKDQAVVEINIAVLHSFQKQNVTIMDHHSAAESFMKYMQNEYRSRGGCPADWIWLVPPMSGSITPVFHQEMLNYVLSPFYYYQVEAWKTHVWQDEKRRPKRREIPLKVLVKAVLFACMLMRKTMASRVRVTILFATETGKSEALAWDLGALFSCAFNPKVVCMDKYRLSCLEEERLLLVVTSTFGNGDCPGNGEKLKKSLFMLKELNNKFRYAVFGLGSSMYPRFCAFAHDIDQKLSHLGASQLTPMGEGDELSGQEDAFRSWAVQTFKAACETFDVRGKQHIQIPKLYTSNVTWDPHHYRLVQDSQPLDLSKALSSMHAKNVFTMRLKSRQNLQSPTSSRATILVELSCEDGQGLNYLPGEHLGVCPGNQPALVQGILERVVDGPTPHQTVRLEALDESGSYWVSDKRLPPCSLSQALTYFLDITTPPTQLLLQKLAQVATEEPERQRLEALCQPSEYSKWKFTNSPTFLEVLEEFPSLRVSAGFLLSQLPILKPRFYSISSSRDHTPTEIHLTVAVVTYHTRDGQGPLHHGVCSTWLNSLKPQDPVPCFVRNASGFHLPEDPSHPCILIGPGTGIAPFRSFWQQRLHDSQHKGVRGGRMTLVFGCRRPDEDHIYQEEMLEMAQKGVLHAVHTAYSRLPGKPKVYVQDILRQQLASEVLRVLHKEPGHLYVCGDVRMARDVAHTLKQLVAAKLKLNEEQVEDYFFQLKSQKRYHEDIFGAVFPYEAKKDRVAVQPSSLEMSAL
Nitric oxide synthase 1, sequence (P29475 whole entry): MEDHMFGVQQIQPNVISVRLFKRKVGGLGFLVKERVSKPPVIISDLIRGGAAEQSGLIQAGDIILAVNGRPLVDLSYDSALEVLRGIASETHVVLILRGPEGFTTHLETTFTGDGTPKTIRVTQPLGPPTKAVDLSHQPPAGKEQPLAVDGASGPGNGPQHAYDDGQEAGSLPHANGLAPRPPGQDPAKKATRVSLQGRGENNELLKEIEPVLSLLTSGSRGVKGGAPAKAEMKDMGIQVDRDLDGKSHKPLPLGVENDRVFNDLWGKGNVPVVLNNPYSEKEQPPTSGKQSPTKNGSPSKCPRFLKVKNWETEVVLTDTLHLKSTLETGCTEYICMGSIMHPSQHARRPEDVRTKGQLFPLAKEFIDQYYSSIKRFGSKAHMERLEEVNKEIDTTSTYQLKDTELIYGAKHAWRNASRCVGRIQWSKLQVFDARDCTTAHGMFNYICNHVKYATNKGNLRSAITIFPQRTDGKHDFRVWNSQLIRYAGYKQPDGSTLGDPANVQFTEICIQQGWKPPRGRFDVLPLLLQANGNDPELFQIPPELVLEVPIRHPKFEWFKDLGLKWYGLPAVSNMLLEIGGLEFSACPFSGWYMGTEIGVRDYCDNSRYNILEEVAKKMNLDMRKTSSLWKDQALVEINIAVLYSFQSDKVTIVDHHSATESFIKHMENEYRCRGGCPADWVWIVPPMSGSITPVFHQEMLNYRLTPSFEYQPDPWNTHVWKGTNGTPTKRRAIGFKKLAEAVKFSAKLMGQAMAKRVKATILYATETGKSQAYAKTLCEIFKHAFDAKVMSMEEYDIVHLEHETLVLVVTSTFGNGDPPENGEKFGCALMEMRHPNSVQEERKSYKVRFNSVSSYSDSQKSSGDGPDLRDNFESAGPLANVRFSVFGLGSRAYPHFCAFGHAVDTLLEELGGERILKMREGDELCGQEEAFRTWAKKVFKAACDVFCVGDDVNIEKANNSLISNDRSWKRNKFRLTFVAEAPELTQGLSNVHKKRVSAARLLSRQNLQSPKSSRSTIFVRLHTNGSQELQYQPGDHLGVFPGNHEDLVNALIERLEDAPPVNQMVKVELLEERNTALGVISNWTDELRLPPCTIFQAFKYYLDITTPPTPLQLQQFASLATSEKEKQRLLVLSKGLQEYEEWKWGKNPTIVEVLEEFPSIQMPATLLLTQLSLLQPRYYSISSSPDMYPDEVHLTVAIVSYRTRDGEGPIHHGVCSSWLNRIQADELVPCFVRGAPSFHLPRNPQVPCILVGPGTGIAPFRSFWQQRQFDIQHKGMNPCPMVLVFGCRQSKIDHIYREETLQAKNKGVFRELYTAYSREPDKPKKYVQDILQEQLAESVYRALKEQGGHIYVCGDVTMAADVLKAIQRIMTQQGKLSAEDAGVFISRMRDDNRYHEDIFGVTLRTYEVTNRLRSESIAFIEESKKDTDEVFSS

IC50 [1] [µM] | IC50 (Nitric oxide synthase 3) [µM] | IC50 (Nitric oxide synthase 1) [µM] | Kd [2] [µM] | Structure (SMILES)
9.4 | > 100 | > 100 | > 40 | N=C(N)[C@@H]1CCCN1
0.2 | 2.4 | 1.7 |  | N=C(N)[C@@H]1CCN1
0.12 | 15 | 14 | 0.63 | N=C(N)[C@H]1CCCN1
0.03 | 0.25 | 0.26 |  | N=C(N)[C@H]1CCN1
0.7 |  |  |  | N=C(N)C1CCCN1 (stereo not given)

Continued, molecule first:

Structure (SMILES) | IC50 [1] [µM] | IC50 (Nitric oxide synthase 3) [µM] | IC50 (Nitric oxide synthase 1) [µM] | Kd [2] [µM]
N=C(N)C1CC1 [CYCLOPROPANECARBOXIMIDAMIDE] | 0.79 |  |  | 
N=C(N)C1CCCCN1 (stereo not given) | > 100 |  |  | 
N=C(N)C1CCCS1 (stereo not given) | 5.3 |  |  | 
N=C(N)C1CCNCC1 | 58 |  |  | 
N=C(N)C1CCCO1 (stereo not given) | 8.9 |  |  | 
N=C(N)C1C=CCN1 (stereo not given) | 0.18 |  |  | 
N=C(N)C1CCCNC1 (stereo not given) | 51 |  |  | 
[H]/N=C(/N)C1CCCC1 [CYCLOPENTANECARBOXIMIDAMIDE] | 4.4 |  |  | 
N=C(N)C1CNC1 | 14 |  |  | 
N=C(N)C1CCC1 [CYCLOBUTANECARBOXIMIDAMIDE] | 0.38 |  |  | 
